From PubChem BioAssay AID1896 (NMMLSC, 2009) come the findings set out here.

The structures appear in SMILES notation. Active and inactive are the calls of the source. The rule behind the calls is not given here.

This test addresses Mitogen-activated protein kinase kinase kinase 3 (Homo sapiens) (UniProt Q99759). As to the kind of experiment: inhibitors of MEK5 binding to MEKK3, dose response, biochemical, bead multiplex flow cytometry, wildtype (AID 1896). As to conditions: bead-based multiplex flow cytometry, MEK5-MEKK3 PB1 binding; for Ki: measured here: Ki from EC50.

Mitogen-activated protein kinase kinase kinase 3 (Homo sapiens), sequence (Q99759 whole entry, looked up): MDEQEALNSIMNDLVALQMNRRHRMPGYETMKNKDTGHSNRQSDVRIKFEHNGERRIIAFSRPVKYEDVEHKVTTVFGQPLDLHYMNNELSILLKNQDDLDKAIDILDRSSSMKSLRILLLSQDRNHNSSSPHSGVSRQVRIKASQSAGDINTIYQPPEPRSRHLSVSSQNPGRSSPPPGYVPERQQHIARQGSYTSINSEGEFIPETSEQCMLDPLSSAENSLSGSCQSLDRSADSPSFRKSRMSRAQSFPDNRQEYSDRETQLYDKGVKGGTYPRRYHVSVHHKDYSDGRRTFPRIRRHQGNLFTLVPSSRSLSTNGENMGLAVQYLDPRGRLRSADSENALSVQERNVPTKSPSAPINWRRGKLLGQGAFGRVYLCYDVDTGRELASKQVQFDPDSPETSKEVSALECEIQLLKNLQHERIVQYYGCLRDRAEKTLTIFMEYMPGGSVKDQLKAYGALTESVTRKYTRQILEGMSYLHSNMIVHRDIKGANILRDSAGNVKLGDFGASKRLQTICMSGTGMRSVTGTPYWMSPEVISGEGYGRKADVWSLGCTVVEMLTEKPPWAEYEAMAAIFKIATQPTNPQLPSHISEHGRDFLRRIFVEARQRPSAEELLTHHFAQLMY

For the molecule `C#CCOCCOCCOCCNc1nc(N2CCN(C(=O)[C@H]([C@@H](C)CC)n3cc([C@@H](N)Cc4ccc(O)cc4)nn3)CC2)nc(N2CCN(C(=O)[C@H](Cc3cc4ccccc4[nH]3)n3cc([C@@H](N)C(C)CC)nn3)CC2)n1` (stereo partly specified), the EC50 is > 30 µM (inactive).

For `Cc1ccc(CN2CCSc3ccc(C(=O)NC4CCN(Cc5ccccc5)CC4)cc32)cc1`, the EC50 was > 30 µM (inactive).

On to `NC(N)=N/N=C/c1ccc(OCc2ccc(Cl)cc2Cl)cc1`, for which the EC50 is > 30 µM (inactive). On the same count and under the same terms, the same measure for `CCCSc1ncnc2sc(C)c(C)c12`: > 30 µM (inactive). Take `CN(C)CCNc1ncnc2c1sc1nc(-c3ccccc3)c3c(c12)CCCC3`: the EC50 was > 30 µM (inactive).

With `CN1CCN(c2ccc(NC(=O)c3ccc(-c4ccc(Cl)cc4)o3)cc2)CC1`, the EC50 is 2.68 µM and the Ki was determined as 2.29 µM. For `NC(N)=N/N=C/c1ccc(OCc2ccccc2Cl)cc1`, the EC50 was > 30 µM (inactive). For the molecule `C/C(=N\NC(=O)c1cc(O)cc(O)c1)c1ccc(NC(=O)Cc2ccccc2)cc1`, the EC50 is > 30 µM (inactive). As to `CCOc1cccc2sc(N(CCCN(C)C)C(=O)c3ccc(S(=O)(=O)N4CCc5ccccc5C4)cc3)nc12`, the EC50 was > 30 µM (inactive). For `Nc1cc2nc[nH]c2cc1N`, the EC50 was 7.87 µM and the Ki came out at 6.73 µM. With `COc1ccc(C(CCNCc2ccc(OC(C)C)cc2)c2ccccc2OC)cc1` (stereo unspecified), the EC50 is > 30 µM (inactive). On to `CN(C)c1ccc(NC(=O)CN2CCC(O)(c3ccccc3)CC2)cc1`, for which the EC50 was > 30 µM (inactive). Turning to `C#CCOCCOCCOCCNc1nc(N2CCN(C(=O)[C@H]([C@@H](C)CC)n3cc([C@@H](N)CO)nn3)CC2)nc(N2CCN(C(=O)[C@H](Cc3cc4ccccc4[nH]3)n3cc([C@@H](N)Cc4ccc(O)cc4)nn3)CC2)n1`, the EC50 is 8.28 µM and the Ki is 7.08 µM. As to `CN(C)c1ccc(/C=C/C=C2/SC(=S)N(c3ccccc3)C2=O)cc1`, the EC50 is 1.21 µM and the Ki was found to be 1.03 µM. As for `O=C1c2ccccc2-c2onc3ccc(NCCCn4ccnc4)c1c23`, the EC50 is > 30 µM (inactive). As for `O=C(OCC1O[C@@H](OC(=O)c2cc(O)c(O)c(O)c2)[C@@H](OC(=O)c2cc(O)c(O)c(O)c2)[C@@H](OC(=O)c2cc(O)c(O)c(O)c2)[C@@H]1OC(=O)c1cc(O)c(O)c(O)c1)c1cc(O)c(O)c(O)c1` (stereo partly specified), the EC50 is > 30 µM (inactive).

`S=C(Nc1cccc(Cl)c1)N(CCCN1CCCC1)Cc1cccn1Cc1ccc(Cl)cc1`: the EC50 was > 30 µM (inactive). Consider `Cc1nc(N)sc1-c1csc(Nc2ncccn2)n1`, for which the EC50 is > 30 µM (inactive). For `CCCCCc1cc(=O)oc2c(C(CCN3CCCCC3)c3ccc(OC)cc3)c(OC)cc(OC)c12` (stereo unspecified), the EC50 is > 30 µM (inactive). With `Cc1ccccc1OCC(O)CNC1CCC(NCC(O)COc2ccccc2C)CC1` (stereo unspecified), the EC50 is > 30 µM (inactive). Still for that read-out and setting: the same measure for `O=[N+]([O-])c1ccc(/C=C/C2=NN(c3ccccc3)C(c3ccco3)C2)o1` (stereo unspecified): > 30 µM (inactive); for `CCN(CC)CCNC(=O)c1ccc(NC(=O)c2cn(-c3ccccc3)nc2-c2cccs2)cc1`: > 30 µM (inactive); for `COc1ccc(-c2[nH]ncc2CN2CCCCCCC2)c(OC)c1`: > 30 µM (inactive). With `NC(=O)CSc1nnc(Cc2ccc3c(c2)OCO3)o1`, the EC50 was > 30 µM (inactive). Turning to `CCNc1ccc2noc3c2c1C(=O)c1ccccc1-3`, the 50% effective concentration (EC50) was 4.55 µM and the Ki worked out at 3.89 µM. Consider `CN1CCN(CC(O)COc2ccc(C34CC5CC(CC(C5)C3)C4)cc2)CC1` (stereo unspecified), for which the EC50 was > 30 µM (inactive). For `CCc1ccc(Nc2n[n+](-c3ccccc3)c(-c3cc(OC)c(OC)cc3Br)s2)cc1`, the EC50 was > 30 µM (inactive). Same read-out and setting: the same measure for `Cc1sc(NC(=O)c2ccccc2)c(C(c2ccccn2)N2CCN(CCO)CC2)c1C` (stereo unspecified): > 30 µM (inactive).

For `COc1ccccc1N1CCN(S(=O)(=O)c2ccc(Cl)s2)CC1`, the EC50 was > 30 µM (inactive).

Regarding `CCC(=C/c1sc2ccc3ccccc3c2[n+]1C)/C=C1\Sc2ccc3ccccc3c2N1C`, the EC50 was 0.27 µM and the Ki came to 0.23 µM. As for `CCCCCCCCCCOC(=O)Cn1c(COc2cccc(C)c2)[n+](C)c2ccccc21`, the EC50 was > 30 µM (inactive). On to `CCC(/C=C1\Sc2ccc(OC)cc2N1CCO)=C\c1sc2ccc(OC)cc2[n+]1CCO`, for which the EC50 is 2.83 µM and the Ki is 2.42 µM. As to `CNC(=O)C(=O)Nc1c(C)cc(C)cc1C`, the EC50 is > 30 µM (inactive). `S=c1[nH]nc(-c2ccc(Cl)cc2)n1-c1ccc2c(c1)OCCO2`: the EC50 was > 30 µM (inactive).

As for `Cc1cc(N=Nc2ccc(C)c(N=Nc3cc(C)c(N)cc3N)c2)c(N)cc1N`, the EC50 is > 30 µM (inactive). Regarding `CCCCCCCCCCOC(=O)Cn1c(COc2ccc(OC)cc2)[n+](C)c2ccccc21`, the EC50 was > 30 µM (inactive). With `CNC[C@H](CC1CCCCC1)NC[C@H](Cc1ccccc1)NCCC12CC3CC(CC(C3)C1)C2`, the EC50 is > 30 µM (inactive). On to `CCN1C(c2ccccc2)=C(c2ccccc2)S/C1=C/C=C1\SC(=S)N(C)C1=O`, for which the EC50 is 3.4 µM and the Ki was found to be 2.91 µM. On to `CCN1C(c2ccccc2)=C(c2ccccc2)S/C1=C\C=C1/SC(=S)N(C)C1=O`, for which the EC50 is 3.93 µM and the Ki turned out to be 3.36 µM.

With `Nc1ccc(N)c(C(=O)O)c1`, the EC50 is 3.06 µM and the Ki stood at 2.62 µM.

On to `C#CCOCCOCCOCCNc1nc(N2CCN(C(=O)[C@H]([C@@H](C)CC)n3cc([C@@H](N)Cc4ccc(O)cc4)nn3)CC2)nc(N2CCN(C(=O)[C@H](CCCCN)n3cc([C@@H](N)CC(C)C)nn3)CC2)n1`, for which the EC50 is > 30 µM (inactive). As to `C#CCOCCOCCOCCNc1nc(N2CCN(C(=O)[C@H]([C@@H](C)CC)n3cc([C@@H](N)CO)nn3)CC2)nc(N2CCN(C(=O)[C@H](Cc3cc4ccccc4[nH]3)n3cc([C@@H](N)C(C)CC)nn3)CC2)n1` (stereo partly specified), the EC50 is > 30 µM (inactive). For the molecule `C#CCOCCOCCOCCNc1nc(N2CCN(C(=O)[C@H](Cc3cc4ccccc4[nH]3)n3cc([C@@H](N)C(C)CC)nn3)CC2)nc(N2CCN(C(=O)[C@H](Cc3cc4ccccc4[nH]3)n3cc([C@@H](N)Cc4ccc(O)cc4)nn3)CC2)n1` (stereo partly specified), the EC50 is > 30 µM (inactive). As for `COc1ccc(CSc2n[nH]c(C)n2)cc1[N+](=O)[O-]`, the EC50 was > 30 µM (inactive).

For `CCN1CCN(CCNC(=O)c2ccc(/C=C3/Sc4ccccc4N(Cc4cccc(Cl)c4)C3=O)cc2)CC1`, the EC50 is > 30 µM (inactive).

With `CCOC(=O)C1=C(c2ccccc2)NC(N)=NC1c1ccc(OCc2ccc(Cl)cc2)c(OC)c1` (stereo unspecified), the EC50 is > 30 µM (inactive). Still for that read-out and setting: to `C#CCOCCOCCOCCNc1nc(N2CCN(C(=O)[C@H](Cc3ccc(O)cc3)n3cc([C@@H](N)CC(C)C)nn3)CC2)nc(N2CCN(C(=O)[C@H](Cc3ccc(O)cc3)n3cc([C@@H](N)CC(C)C)nn3)CC2)n1` belongs > 30 µM (inactive). On to `CC[n+]1c(/C=C/C=C/N(C(C)=O)c2ccccc2)sc2ccccc21`, for which the EC50 is > 30 µM (inactive).

In the case of `Cc1nc(Nc2cnc(/C=C/c3cc(C(=O)Nc4cccc(C(F)(F)F)c4)ccc3C)cn2)cc(N2CCNCC2)n1`, the EC50 was 25.2 µM and the Ki was 21.5 µM. `CCCCCCCCCCCCCCCC[n+]1ccc(/C=N/O)cc1`: the EC50 was > 30 µM (inactive). Same read-out and setting: to `CCCCCc1cc(=O)oc2c(C(CCN3CCCC(C)C3)c3ccc4c(c3)OCO4)c(OC)cc(OC)c12` (stereo unspecified) belongs > 30 µM (inactive); to `CC[C@@H](C)[C@H](CNC)NC[C@@H](Cc1cccc2ccccc12)NCCc1cccc(C(F)(F)F)c1`, > 30 µM (inactive). Regarding `COCc1c(C#N)c(NCCc2ccccc2)nc(C)c1[N+](=O)[O-]`, the EC50 is > 30 µM (inactive). In the case of `CNc1nc(-c2c[nH]c3ccccc23)cs1`, the EC50 was 8.73 µM and the Ki stood at 7.47 µM. For the molecule `CCN1/C(=C\c2ccc3cc(C)ccc3[n+]2CC)Sc2cc(C)c(C)cc21`, the EC50 was 9.27 µM and the Ki stood at 7.93 µM.

With `C#CCOCCOCCOCCNc1nc(N2CCN(C(=O)C([C@@H](C)CC)n3cc(C(N)COC(=O)C(F)(F)F)nn3)CC2)nc(N2CCN(C(=O)[C@H](CCCCN)n3cc(C(N)[C@H](C)CC)nn3)CC2)n1` (stereo partly specified), the EC50 is > 30 µM (inactive).

In the case of `Cc1ccnc(NC(=O)C2(c3cccs3)CCOCC2)c1`, the EC50 was > 30 µM (inactive). Consider `CCN1CCN(Cc2ccc(NC(=O)c3cc(NC(=O)C(=O)c4c[nH]c5ccccc45)cc(OC)c3)cc2C(F)(F)F)CC1`, for which the EC50 was > 30 µM (inactive). In the case of `CN(c1ccccc1)c1ccc(/C=c2\s/c(=C(/C#N)C(=O)C(C)(C)C)n(Cc3ccco3)c2=O)cc1`, the EC50 is 0.34 µM and the Ki worked out at 0.29 µM. As for `CCCN1C(=O)/C(=C\C=C2/Sc3ccccc3N2CC)SC1=S`, the EC50 is > 30 µM (inactive). As for `COc1ccc(/C=N/Nc2cc(C)nc3ccc(Br)cc23)cc1`, the EC50 is > 30 µM (inactive).

Regarding `COc1ccc2nc(C)cc(N/N=C/c3cccc(OC)c3O)c2c1`, the EC50 is > 30 µM (inactive). Regarding `CCCCn1c(O)c(/C=C/C=C/C=Nc2ccccc2)sc1=S`, the EC50 is 1.29 µM and the Ki was 1.1 µM. Regarding `CN(C)CCCN(C(=O)c1ccc2c(c1)CCCC2)c1nc2ccc(Cl)cc2s1`, the EC50 was > 30 µM (inactive).

On to `Cc1cc2ccccc2n1CCNC(=O)c1ccc(Br)o1`, for which the EC50 is 11.9 µM and the Ki came out at 10.1 µM. Regarding `CCn1cc(C(=O)O)c(=O)c2cc(F)c(N3CCN(C(=S)NC(=O)c4ccc(Br)cc4)CC3)cc21`, the EC50 is > 30 µM (inactive). On the same count and under the same terms, to `CCc1ccc(-c2nn(-c3ccccc3)cc2CSC(=N)N)cc1` belongs > 30 µM (inactive). Regarding `CSc1cccc(NC(=S)N(CCCN2CCCC2)Cc2cccn2Cc2ccc(Cl)cc2)c1`, the EC50 is > 30 µM (inactive). Same read-out and setting: the same measure for `CCN(Cc1ccccc1)S(=O)(=O)c1ccc(C(=O)N(CCCN(C)C)c2nc3ccc(F)cc3s2)cc1`: > 30 µM (inactive); for `C=CCN1C(=O)/C(=C/c2ccc(-c3ccc(F)cc3)o2)SC1=S`: > 30 µM (inactive).
